Measured values reported in US20230212208A1, “Colour Tunable Luminescent Bidentate Platinum (II) Complexes for Probing Mismatch DNA” (THE UNIVERSITY OF HONG KONG, priority 2019, published 2023).
Like-named read-outs stand apart in the source and are kept apart here.

Key:
[1] = tested on: AA hairpin mismatched DNA (SEQ ID NO: 7); details: 20 μM in Tris buffer, λex=410 nm, AA hairpin mismatch
Description: (§1) The emission increased around 3-fold for CA (SEQ ID NO: 5) and TC hairpin mismatched DNA (SEQ ID NO: 6), and 2-fold for AA hairpin mismatched DNA (SEQ ID NO: 7) (FIG. 5A).

[2] = tested on: CA hairpin mismatched DNA (SEQ ID NO: 5); details: 20 μM in Tris buffer, λex=410 nm, CA hairpin mismatch
Description: as §1

[3] = tested on: TC hairpin mismatched DNA (SEQ ID NO: 6); details: 20 μM in Tris buffer, λex=410 nm, TC hairpin mismatch
Description: as §1

[4] = tested on: hairpin CC mismatched DNA with different adjacent base pairs; details: Pt(II) complex to DNA ratio 1.0
Description: Especially, the 5′- . . . […] GCA . . . -3′ (SEQ ID NO: 24), 5′- . . . GCC . . . -3′ (SEQ ID NO: 25), GCG . . . -3′ (SEQ ID NO: 26) and 5′- . . .

[5] = tested on: cognate matched DNA (CG match, SEQ ID NO: 3); details: 20 μM in Tris buffer pH 7.1, 1-fold matched DNA
Description: The emission spectra for detection of CC mismatched DNA and matched DNA were determined (FIGS. 2A and 2B).

Substance: Pt(II)(benzo[h]quinolone-1-benzyl-3-butylimidazolium bromide [PtCN2]
- emission increase at high-energy fingerprint spectrum [1]: ~2 fold
- emission increase at high-energy fingerprint spectrum [2]: around 3 fold
- emission increase at high-energy fingerprint spectrum [3]: around 3 fold
- emission intensity at 497 nm over matched DNA ([4]; CC mismatch 5'-ACC-3' (SEQ ID NO: 17) vs matched DNA): 5 fold
- emission intensity at 497 nm over matched DNA ([4]; CC mismatch 5'-GCA-3' (SEQ ID NO: 24) vs matched DNA): 5 fold
- emission intensity at 497 nm over matched DNA ([4]; CC mismatch 5'-GCC-3' (SEQ ID NO: 25) vs matched DNA): 5 fold
- emission intensity at 497 nm over matched DNA ([4]; CC mismatch 5'-GCG-3' (SEQ ID NO: 26) vs matched DNA): 5 fold
- emission response at 497 nm, higher than matched DNA ([4]; CC mismatch 5'-GCT-3' (SEQ ID NO: 27) vs matched DNA (SEQ ID NO: 32)): 6 fold
- emission enhancement at high-energy emission [5]: no significant emission enhancement
